“Also recorded” adds a separate entry of the source.
Assays:
[1] = tested on: adult human articular chondrocytes; experiment: Transwell migration assay, adult human articular chondrocytes; format: cell-based
Procedure: Cells were plated on Millicell 8 μm Transwell® inserts (Millipore, Billerica, Mass.) in 12-well plates (Fisher Scientific, Pittsburgh, Pa.) and stimulated with 10 μM of RCGD 423, 10 μM MYC inhibitor (10058-F4) or 10 μM STAT3 inhibitor (STATTIC) from Tocris Bioscience (Bristol, UK). Cells that migrated across the membranes were quantified by counting after 48 hours of treatment.

[2] = tested on: MMP13, ADAMTS4 and ADAMTS5; experiment: Quantitative PCR of catabolic genes in adult pig articular chondrocytes; format: cell-based
Procedure: FIGS. 30A-30B. […] (FIG. 30A) Adult pig articular chondrocytes were cultured for 24 hours with the indicated cytokines or RCGD 423 and the levels of pSTAT3 and MYC were measured with respect to histone H3. Representative data for other proteins in the MAPK (p38 and MEK1/2), AKT (phospho-AKT; pAKT) or NF-KB (NF-KB p65) are also shown. (FIG. 30B) Levels of transcription of genes indicative of a catabolic response were determined via quantitative PCR in adult pig articular chondrocytes treated with OSM, IL-6, TNF-α, LIF or RCGD 423. Data are represented at mean±SD.
Cartilage degeneration is generally considered a feed-forward process, in which small losses of chondrocytes result in microenvironmental changes including induction of an inflammatory response and other pro-catabolic events (Hunziker, 2002). In turn, these alterations in the joint milieu promote production of matrix degrading proteins including MMPs (collagenases) and proteins of the ADAMTS family (aggrecanases). LIF has been implicated in promoting this cycle of matrix destruction during the pathogenesis of osteoarthritis (Hui et al., 2000; Lotz et al., 1992), although its role in this process has been controversial. In order to better understand the mechanism of action of LIF, RCGD 423 and known pro-inflammatory cytokines in the promotion of degeneration, we stimulated adult pig articular chondrocytes with these molecules and quantitated the levels of activated downstream proteins that mediate the cellular signaling response (FIG. 30A).
Total RNA was extracted using RNeasy Micro Kit (QIAGEN, Valencia, Calif.) according to the manufacturer's protocol. Quantitative reverse transcription PCR was performed using Bio-Rad T100 Thermal Cycler (Bio-Rad, Hercules, Calif.). Primer sequences are available upon request.

cartilage explants = experiment: Cartilage explant culture: tissue expansion, COL2 and GAG content; format: cell-based, pig; conditions: for expansion of cartilage tissue in explants: cartilage explants/plugs in culture
Excerpt: The same stimulatory effect was achieved after treatment of explants with CRMs identified in our small molecule screen. […] This can test if activation of p-STAT3 and c-MYC by selected small molecules CRM-398 and -423 can result in in situ expansion of articular cartilage tissue.
Mature articular cartilage is comprised of chondrocytes contained within lacunae surrounded by dense extracellular matrix. In order for a regenerative response to occur, proliferation, survival and migration must all proceed in concert. […] We designed two sets of experiments to assess the ability of RCGD 423 to operate in this capacity. First, RCGD 423 or cytokines implicated in the growth and differentiation of articular cartilage were incubated with small plugs of cartilage tissue; after 5 weeks, the amount of COL2 and glycosaminoglycans (GAGs) were determined.
Cartilage explants were washed with PBS and then directly digested or stored at […]. For digestion, explants were transferred in digestion buffer composed of 1 mg/mL proteinase K in Tris/Ethylene diamine tetra-acetic acid (EDTA) buffer (pH 7.6) containing 18.5 μg/mL iodoacetamide and 1 μg/mL pepstatin A) for 16-72 h at 56° C. After complete digestion the GAG content was spectrophotometrically determined with 1,9-dimethylmethylene blue chloride staining in the phosphate buffer with ethylene diamine tetra-acetic acid buffer (14.2 g/L Na2HPO4 and 3.72 g/L Na2EDTA, pH 6.5) using an Infinite M1000 Pro microplate reader (Tecan) at an absorbance of 520 nm with chondroitin sulfate as a standard. Amount of total DNA in explants was determined by a CyQuant DNA Kit (Molecular Probes by Life Technology) using Qubit 1.0 fluorometer (Invitrogen).
Cultured explants were first digested in testicular hyaluronidase (0.05% in 50 mM HEPES) for 2 hours at 37° C. 0.5M glacial acetic acid was added to digestion solution to maximize the collagen swelling and provide best pepsin access. Pepsin (250 μg/ml) was then used to further digest the pellets in combination with rotation and occasional gentle vortexing at 4° C. for 18-24 hours. Cold tris base and NaOH were added to the digestion solution to neutralize the acetic acid. Digestion solution was vigorously vortexed immediately, and subsequently rotated at 4° C. overnight to maximize collagen solubility. Tubes were centrifuged to separate undigested tissue and supernatant. Any undigested tissue was subjected to the digestion process again. All supernatants were combined for ELISA. Concentration of collagen II in the supernatant was measured by Type I/II Collagen Detection Kit (Chondrex, Inc, Redmond, Wash.), according to manufacturer's instruction and normalized either to DNA content or wet weight of the explants determined prior to experimentation.

| Compound | migration / migratory potential [1] | transcription of matrix degrading enzymes (MMP13, ADAMTS4 and ADAMTS5) [2] | COL2 (cartilage explants; after 5 weeks) | glycosaminoglycans (GAGs) (cartilage explants; after 5 weeks) | expansion of cartilage tissue in explants (cartilage explants) |
| --- | --- | --- | --- | --- | --- |
| Brc1ccc(Nc2nc(-c3ccccc3)cs2)cc1 [RCGD 423, N-(4-Bromophenyl)-4-phenyl-1,3-thiazol-2-amine] | increased | no upregulation; also recorded: does not promote catabolism | increases | increases | strong expansion |
| LIF: interleukin 6 (IL-6)-class cytokine | increased | neither cytokine resulted in substantial transcriptional upregulation |  |  | significant expansion; also recorded: small expansions |
